Measured values taken from US20250270170A1, “2,3-DIMETHOXY-5-METHYL-1,4-BENZOQUINONE ALKYL ALCOHOL DERIVATIVE AND USE THEREOF” (BEIJING ANJIANXI BIO-MEDICAL TECHNOLOGY CO., LTD., priority 2021, published 2025).
“Also recorded” adds a separate entry of the source. Marks after values point to notes of the source that are not given here.

Experiments:
[1] = tested on: human gastric cancer NCI-N87 transplanted tumor; experiment: Example 3: tumor growth in NCI-N87 transplanted tumor model in nude mice; type: in vivo, BALB/c nude mice
Experimental: Female BALB/c nude mice (age: 6 to 7 weeks) were purchased from Beijing Vital River Laboratory Animal Technology Co., Ltd. The mice were raised in an SPF animal room at a temperature of 20 to 25° C., a relative humidity of 40% to 70%, and a cycle of 12 hours of light and 12 hours of dark. The animals had free access to water and food. After about 1 week of normal feeding, mice with good physical condition after the veterinary examination were selected for this assay. Before grouping, a marker was used to mark on the base of the animals' tail. After grouping, each animal was marked with an ear cutout.
The solution was prepared before each administration. An appropriate amount of DDP was weighed and put into a glass bottle. Then, an appropriate volume of physiological saline was added to the bottle, and vortexed (may be heated in a water bath to 50 to 60° C.) to completely dissolve the drug.
An appropriate amount of the compound was weighed and added to an appropriate volume of dimethylacetamide (DMA). The mixture was vortexed to prepare a stock solution (8 mg·mL^−1). The stock solution was prepared once a week, divided into packages and then stored in a 2 to 8° C. refrigerator. One tube was taken out before each administration, and an appropriate volume of 30% Solutol and PEG400 was added while vortexing. The mixture was vortexed and mixed well. Then, an appropriate volume of physiological saline was added, and mixed well to give an administration formulation with a concentration of 0.4 mg·mL^−1, in which the volume ratio of DMA: 30% Solutol: PEG 400: physiological saline was 5:20:20:55.
Human gastric cancer cells NCI-N87 were obtained from the Cell Bank of the Type Culture Collection Committee of Chinese Academy of Sciences (cryopreserved in liquid nitrogen in the laboratory).
NCI-N87 cells were routinely cultured in a RPMI-1640 culture medium containing 10% fetal bovine serum under culture conditions of 37° C. and 5% CO2. The cells were digested with 0.25% trypsin, and passaged according to the cell growth conditions with a passaging ratio of 1:3 to 1:5.
The NCI-N87 cells in the logarithmic growth phase were collected, counted and resuspended in a serum-free RPMI-1640 medium, and the cell concentration was adjusted to 5×10^7 cells/mL. The cells were pipetted with a pipette to disperse them evenly, and the cells were put into a 50-mL centrifuge tube, which was placed in an ice box. A 1-mL syringe was used to draw the cell suspension, which was injected subcutaneously into the axilla of the front right limb of a nude mouse. Each animal was inoculated with 100 μL (5×10^6 cells/mouse) to establish an NCI-N87 transplanted tumor model in nude mice. After the inoculation, the animal status and tumor growth were regularly observed, and the tumor diameter was measured using an electronic vernier caliper. The data were input into an Excel spreadsheet to calculate the tumor volume. When the tumor volume reached 100 to 300 mm^3, 72 animals in good health and with similar tumor volumes were selected and divided into 9 groups (n=8) using randomized block method. The day of grouping was regarded as the first day of the assay (D1). After the start of the assay, the tumor diameter was measured twice a week, the tumor volume was calculated, and the animal body weight was also weighed and recorded.
The calculation formula of tumor volume (TV) is as follows: […]
wherein l represents the long diameter of a tumor (mm); and w represents the short diameter of a tumor (mm).
On the last day of the assay (D44), the animals were anesthetized using CO2 inhalation 1 hour after administration (R01) and sacrificed, and tumor tissues were collected, weighed, and photographed.
The calculation formula of tumor growth inhibition rate TGI (%) is: […]

[2] = tested on: VEGF/VEGFR/p-VEGFR and other proteins in NCI-N87 transplanted tumor tissues; experiment: Example 4: Western blot of NCI-N87 transplanted tumor tissue proteins; type: in vivo, nude mice; details: Western blot grayscale vs blank solvent group, compound of formula (I) 2 mg/kg
Experimental: Western Blot technology was used to quantitatively detect the expression of VEGF/VEGFR, Survivin and other proteins in tumor tissues. […] In this study, 50 μg of tumor tissue proteins were added to each well, and the working concentrations of the antibodies were diluted according to the instructions. Briefly: the tumor tissue was taken, lysed with an RIPA protein lysis solution containing 1% PMSF and mixed protease inhibitors, and centrifuged at 12000×g for 20 min to take the supernatant; the concentration of proteins was detected by BCA method; 10% SDS-PAGE gel electrophoresis was performed; the proteins from SDS-PAGE gel were transfered to a PVDF membrane by semi-dry […]; the membrane was blocked with a fast blocking buffer for 10 minutes, and a primary antibody at corresponding working concentration was added, and incubated at 4° C. overnight; the membrane was washed with TBST for 3 times, and incubated with a secondary antibody at room temperature for 1 h; after washing the membrane three times, an image was developed and saved, and the grayscale values were analyzed with Image lab; the anti-Vinculin antibody was used as an internal reference control antibody.
The grayscale of the Western blot bands were calculated with Image J software, and Graphpad Prism 5 was used for related statistical processing. A two-sided t-test was used for comparison between two groups. P>0.05 means no significance (NS), P<0.05 is *, […], and P<0.001 is ***.

[3] = D16, DDP 4/4/5/5 mg/kg i.p. QW×4
[4] = D20, DDP 4/4/5/5 mg/kg i.p. QW×4
[5] = D23, DDP 4/4/5/5 mg/kg i.p. QW×4
[6] = D27, DDP 4/4/5/5 mg/kg i.p. QW×4
[7] = D30, DDP 4/4/5/5 mg/kg i.p. QW×4
[8] = D34, DDP 4/4/5/5 mg/kg i.p. QW×4
[9] = D37, DDP 4/4/5/5 mg/kg i.p. QW×4
[10] = D44, DDP 4/4/5/5 mg/kg i.p. QW×4

N.N.[Cl][Pt][Cl] [DDP, cisplatin]
Mean tumor volume ([1]; D13, DDP 4/4/5/5 mg/kg i.p. QW×4): 141 ± 9 mm^3 | Mean tumor volume [1, 3]: 194 ± 18 mm^3 | tumor growth inhibition rate [1, 3]: (36%) | Mean tumor volume [1, 4]: 245 ± 22 mm^3 | tumor growth inhibition rate [1, 4]: (37%) | Mean tumor volume [1, 5]: 276 ± 28* mm^3 | tumor growth inhibition rate [1, 5]: (43%) | Mean tumor volume [1, 6]: 351 ± 22** mm^3 | tumor growth inhibition rate [1, 6]: (46%) | Mean tumor volume [1, 7]: 413 ± 27** mm^3 | tumor growth inhibition rate [1, 7]: (51%) | Mean tumor volume [1, 8]: 492 ± 33** mm^3 | tumor growth inhibition rate [1, 8]: (54%) | Mean tumor volume [1, 9]: 580 ± 47** mm^3 | tumor growth inhibition rate [1, 9]: (55%) | Mean tumor volume [1, 10]: 684 ± 45** mm^3 | tumor growth inhibition rate [1, 10]: (56%) | expression of CyclinD1 [2]: up-regulated | expression of VEGFA [2]: down-regulated | expression of VEGFR2 [2]: up-regulated | expression of anti-apoptotic protein Survivin [2]: down-regulated | expression of cell cycle regulatory protein P21 [2]: down-regulated | expression of p-VEGFR2 [2]: down-regulated | expression of β-catenin [2]: up-regulated

COC1=C(OC)C(=O)C(CCCCCCCCCCOC(=O)Cc2c(C)n(C(=O)c3ccc(Cl)cc3)c3ccc(OC)cc23)=C(C)C1=O [compound of formula (I)]
Mean tumor volume ([1]; D13, 2 mg/kg i.g. BID×28): 141 ± 9 mm^3 | Mean tumor volume ([1]; D13, 6 mg/kg i.g. BID×28): 140 ± 8 mm^3 | Mean tumor volume ([1]; D13, 18 mg/kg i.g. BID×28): 134 ± 8 mm^3 | Mean tumor volume ([1]; D16, 2 mg/kg i.g. BID×28): 180 ± 17 mm^3 | tumor growth inhibition rate ([1]; D16, 2 mg/kg i.g. BID×28): (52%) | Mean tumor volume ([1]; D16, 6 mg/kg i.g. BID×28): 183 ± 10 mm^3 | tumor growth inhibition rate ([1]; D16, 6 mg/kg i.g. BID×28): (48%) | Mean tumor volume ([1]; D16, 18 mg/kg i.g. BID×28): 175 ± 19 mm^3 | tumor growth inhibition rate ([1]; D16, 18 mg/kg i.g. BID×28): (50%) | Mean tumor volume ([1]; D20, 2 mg/kg i.g. BID×28): 218 ± 17** mm^3 | tumor growth inhibition rate ([1]; D20, 2 mg/kg i.g. BID×28): (53%) | Mean tumor volume ([1]; D20, 6 mg/kg i.g. BID×28): 220 ± 11** mm^3 | tumor growth inhibition rate ([1]; D20, 6 mg/kg i.g. BID×28): (51%) | Mean tumor volume ([1]; D20, 18 mg/kg i.g. BID×28): 209 ± 27* mm^3 | tumor growth inhibition rate ([1]; D20, 18 mg/kg i.g. BID×28): (54%) | Mean tumor volume ([1]; D23, 2 mg/kg i.g. BID×28): 253 ± 24** mm^3 | tumor growth inhibition rate ([1]; D23, 2 mg/kg i.g. BID×28): (53%) | Mean tumor volume ([1]; D23, 6 mg/kg i.g. BID×28): 255 ± 16** mm^3 | tumor growth inhibition rate ([1]; D23, 6 mg/kg i.g. BID×28): (52%) | Mean tumor volume ([1]; D23, 18 mg/kg i.g. BID×28): 245 ± 36* mm^3 | tumor growth inhibition rate ([1]; D23, 18 mg/kg i.g. BID×28): (54%) | Mean tumor volume ([1]; D27, 2 mg/kg i.g. BID×28): 294 ± 30** mm^3 | tumor growth inhibition rate ([1]; D27, 2 mg/kg i.g. BID×28): (60%) | Mean tumor volume ([1]; D27, 6 mg/kg i.g. BID×28): 302 ± 24** mm^3 | tumor growth inhibition rate ([1]; D27, 6 mg/kg i.g. BID×28): (58%) | Mean tumor volume ([1]; D27, 18 mg/kg i.g. BID×28): 297 ± 48** mm^3 | tumor growth inhibition rate ([1]; D27, 18 mg/kg i.g. BID×28): (58%) | Mean tumor volume ([1]; D30, 2 mg/kg i.g. BID×28): 332 ± 32** mm^3 | tumor growth inhibition rate ([1]; D30, 2 mg/kg i.g. BID×28): (65%) | Mean tumor volume ([1]; D30, 6 mg/kg i.g. BID×28): 348 ± 31** mm^3 | tumor growth inhibition rate ([1]; D30, 6 mg/kg i.g. BID×28): (62%) | Mean tumor volume ([1]; D30, 18 mg/kg i.g. BID×28): 354 ± 64** mm^3 | tumor growth inhibition rate ([1]; D30, 18 mg/kg i.g. BID×28): (60%) | Mean tumor volume ([1]; D34, 2 mg/kg i.g. BID×28): 370 ± 41** mm^3 | tumor growth inhibition rate ([1]; D34, 2 mg/kg i.g. BID×28): (70%) | Mean tumor volume ([1]; D34, 6 mg/kg i.g. BID×28): 412 ± 37** mm^3 | tumor growth inhibition rate ([1]; D34, 6 mg/kg i.g. BID×28): (64%) | Mean tumor volume ([1]; D34, 18 mg/kg i.g. BID×28): 444 ± 79** mm^3 | tumor growth inhibition rate ([1]; D34, 18 mg/kg i.g. BID×28): (59%) | Mean tumor volume ([1]; D37, 2 mg/kg i.g. BID×28): 450 ± 46** mm^3 | tumor growth inhibition rate ([1]; D37, 2 mg/kg i.g. BID×28): (68%) | Mean tumor volume ([1]; D37, 6 mg/kg i.g. BID×28): 508 ± 38** mm^3 | tumor growth inhibition rate ([1]; D37, 6 mg/kg i.g. BID×28): (62%) | Mean tumor volume ([1]; D37, 18 mg/kg i.g. BID×28): 492 ± 87** mm^3 | tumor growth inhibition rate ([1]; D37, 18 mg/kg i.g. BID×28): (64%) | Mean tumor volume ([1]; D44, 2 mg/kg i.g. BID×28): 536 ± 52** mm^3 | tumor growth inhibition rate ([1]; D44, 2 mg/kg i.g. BID×28): (68%) | Mean tumor volume ([1]; D44, 6 mg/kg i.g. BID×28): 595 ± 57** mm^3 | tumor growth inhibition rate ([1]; D44, 6 mg/kg i.g. BID×28): (63%) | Mean tumor volume ([1]; D44, 18 mg/kg i.g. BID×28): 590 ± 113** mm^3 | tumor growth inhibition rate ([1]; D44, 18 mg/kg i.g. BID×28): (63%) | anti-tumor effect compared with cisplatin ([1]; NCI-N87 transplanted tumor model, summary of Table 5): better anti-tumor effect | expression of CyclinD1 ([2]; 2 mg/kg): down-regulated; also recorded: downregulated | expression of PCNA ([2]; 2 mg/kg): up-regulated; also recorded: upregulated | expression of VEGFA ([2]; 2 mg/kg): down-regulated; also recorded: downregulated | expression of VEGFR2 ([2]; 2 mg/kg): down-regulated; also recorded: downregulated | expression of anti-apoptotic protein Survivin ([2]; 2 mg/kg): down-regulated; also recorded: downregulated | expression of cell cycle regulatory protein P21 ([2]; 2 mg/kg): up-regulated; also recorded: upregulated | expression of p-VEGFR2 ([2]; 2 mg/kg): down-regulated; also recorded: downregulated | expression of pro-apoptotic Bax ([2]; 2 mg/kg): down-regulated; also recorded: downregulated | expression of β-catenin ([2]; 2 mg/kg): down-regulated; also recorded: downregulated
